From patent publication US5939578A, “Vasomolol: an ultra short-acting and vasodilatory vanilloid type β - adrenoceptor antagonist” (Lin; Tong-Ho, priority 1996, dated 1999)

How the values were obtained:
[1] = target: T1, β2-adrenoceptor (trachea) (Cavia porcellus, UniProt Q8K4Z4); test: β-adrenoceptor antagonism in isolated tracheal strips (isoproterenol-induced relaxation); set-up: species or system guinea-pig
T1 construct: Guinea-pig trachea were cleaned of extraneous connective tissue and cut into spiral strips; from tissue; host or cells: isolated guinea-pig tracheal spiral strips
Procedure: Guinea-pig trachea were cleaned of extraneous connective tissue and cut into spiral strips as described in Gen. […] This spiral strip was cut into two equal segments and both were suspended in organ baths filled with 20 ml of Kreb's solution. […] An initial basal tension of 2 g was applied to each tracheal strip and the tissue was allowed to gain tone spontaneously until a steady level was reached (60 min).
(§1) The pA2 values and slope values were calculated from individual Schild plots by regression analysis. The β1 /β2 -selectivity ratio was obtained from the antilogarithm of the difference between the mean pA2 values obtained from right atrium and trachea.
(§2) Mean cumulative concentration-response curves are shown for the positive chronotropic responses to (-) isoproterenol in spontaneously-beating guinea-pig right atria, positive inotropic responses to (-) isoproterenol in electrically driven guinea-pig left atria, and relaxant effects to (-) isoproterenol in guinea-pig spontaneous tone tracheal strips in the absence (.smallcircle.) or presence of 0.01 (.circle-solid.), 0.1, 1 (.tangle-soliddn.) or 10 (.diamond.) μM of vasomolol.

[2] = tested on: right atria and left atrial strips; test: Intrinsic sympathomimetic activity in isolated right atria and left atrial strips; set-up: species or system reserpinized guinea-pigs; settings: for intrinsic sympathomimetic activity: effect on heart rate and contractility: cumulative concentrations, in words
Procedure: Animals were pretreated with reserpine (10 mg/kg, i.p.) 24 hr prior to the experiment described in Naunyn-Schmiedeberg's Arch. […] All preparations including isolated right atria and left atria strips were studied.
All measurements are expressed as mean percentages of the control frequency or force in the same preparation.

[3] = target: T2, β1-adrenoceptor (right atrium) (Cavia porcellus, UniProt H0W3H1); test: β-adrenoceptor antagonism in isolated spontaneously-beating right atria (isoproterenol chronotropic response); set-up: species or system guinea-pig
T2 construct: Spontaneously-beating right atria were removed from the hearts and mounted in a 10 ml organ bath; from tissue; host or cells: isolated guinea-pig (Hartley) right and left atria
Procedure: Guinea-pigs (Hartley) of either sex weighing between 350 and 500 g were sacrificed by a blow on the head. Their hearts and trachea were quickly excised and excess tissue was removed. […] The atrial strip was prestretched to a baseline tension of 0.2 g. […] The atria were then allowed a 30-60 min washout period to estabilize, after which time various concentrations of the test compound were incubated with the atrium 30 min before the cumulative concentrations of the (-) isoproterenol ([…]) was added. All responses to (-) isoproterenol were calculated as a percentage of the maximum control response to (-) isoproterenol.
as §1, §2

[4] = Blood pressure and heart rate responses to intravenous injection in anesthetized rats; type: in vivo, pentobarbital-anesthetized normotensive Wistar rats
Procedure: Measurement of blood pressure and heart rate
The method reported in Gen.
vasomolol (0.5, 1.0, 3.0 mg/kg)

β1/β2-adrenoceptors = test: β1/β2-selectivity from mean pA2 values of right atria and trachea; set-up: species or system guinea-pig
Procedure: as §1, with “The β1 /β2 -selectivity ratio was obtained from the antilogarithm of the difference between the mean pA2 values obtained from the right atria and trachea as described in J. Pharm. […] The pA2” for “The pA2”

[5] = target: T3, β-adrenoceptor, ventricular membranes (Sus scrofa, UniProt Q28998); test: Competition for [3H]-DHA binding to ventricular membranes; set-up: species or system pig
T3 construct: tissue local slaughterhouse; host or cells: pig heart ventricular membranes
Procedure: Pig's heart were obtained from a local slaughterhouse immediately after the animals had been killed and transported to our laboratory in ice-cold buffer (250 mM sucrose/50 mM Tris [hydroxymethyl] aminomethane HCl/1 mM magnesium chloride, pH 7.4). Various heart tissues were removed and prepared as detailed as described in Cardiovasc. […] In the test for receptor binding, the ventricles were placed in ice-cold buffer and all subsequent procedures were carried out at 4° C. The tissue was homogenised in 20 volumes of TE buffer (10 mmole.litre^-1 Tris-HCl, 1 mmole.litre^-1 EDTA, 0.1 mmole.litre^-1 ascorbic acid, pH 7.4) with three 12-s pulses using a Polytron homogenizer (Kinematica, Model PT 3000, Switzerland). The homogenate was filtered with pressure through muslin and the filtrate centrifuged for 10 min at 1000 g to remove connective tissue, unbroken cells and cell debris.
This membrane preparation has been described in Biochem. Biophys. Acta. […] The binding assay of [^3 H]-DHA was carried out as described in Biochem. Biophys. Res. Commun. […] [^3 ]-DHA and ventricular membranes (200-300 μg) were incubated for 60 min at 25° C. with and without the addition of 1 μM alprenolol, in 75 mM Tris-HCI buffer comprising MgCl2 25 mM, to make a final volume of 250 μl. In competitive binding experiments, the competing agent was added directly to the incubation mixture. The incubation was terminated by addition of 1 ml of ice-cold assay buffer followed by immediate filtration through Whatman GF/C glass fiber filters supported on a 12-port filter manifold (Millipore). The filters were immediately washed three times with 5 ml of ice-cold assay buffer and dried in an oven at 60° C. for 2 hr prior to adding 5 ml of Triton-toluene based scintillation fluid.
In each experiment, non-specifically bound [^3 H]-DHA was determined by incubating membrane protein and [^3 H]-DHA with 1 μM alprenolol. Specific binding was thus obtained by deducing this value from the total binding of [^3 H]-DHA for each sample.
All incubations were performed as described in the method section. Data shown are the means of three independent duplicate determinations.

[6] = 0.5 mg/kg i.v., mean ± SEM (n = 8)
[7] = 1.0 mg/kg i.v., mean ± SEM (n = 8)
[8] = 3.0 mg/kg i.v., mean ± SEM (n = 8)

T2 sequence (H0W3H1 1-470): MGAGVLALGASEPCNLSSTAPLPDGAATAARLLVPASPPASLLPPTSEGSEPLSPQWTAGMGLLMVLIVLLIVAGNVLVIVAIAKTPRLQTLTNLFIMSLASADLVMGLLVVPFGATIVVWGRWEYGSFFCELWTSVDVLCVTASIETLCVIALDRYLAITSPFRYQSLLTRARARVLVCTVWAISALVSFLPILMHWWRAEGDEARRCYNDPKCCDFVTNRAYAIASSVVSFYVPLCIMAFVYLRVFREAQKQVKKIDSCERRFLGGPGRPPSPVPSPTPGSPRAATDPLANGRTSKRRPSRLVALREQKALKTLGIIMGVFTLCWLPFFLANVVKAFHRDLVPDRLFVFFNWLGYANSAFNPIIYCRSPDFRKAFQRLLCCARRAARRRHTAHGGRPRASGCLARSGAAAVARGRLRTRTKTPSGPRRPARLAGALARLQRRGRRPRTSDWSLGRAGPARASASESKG
T1 sequence (Q8K4Z4 whole entry): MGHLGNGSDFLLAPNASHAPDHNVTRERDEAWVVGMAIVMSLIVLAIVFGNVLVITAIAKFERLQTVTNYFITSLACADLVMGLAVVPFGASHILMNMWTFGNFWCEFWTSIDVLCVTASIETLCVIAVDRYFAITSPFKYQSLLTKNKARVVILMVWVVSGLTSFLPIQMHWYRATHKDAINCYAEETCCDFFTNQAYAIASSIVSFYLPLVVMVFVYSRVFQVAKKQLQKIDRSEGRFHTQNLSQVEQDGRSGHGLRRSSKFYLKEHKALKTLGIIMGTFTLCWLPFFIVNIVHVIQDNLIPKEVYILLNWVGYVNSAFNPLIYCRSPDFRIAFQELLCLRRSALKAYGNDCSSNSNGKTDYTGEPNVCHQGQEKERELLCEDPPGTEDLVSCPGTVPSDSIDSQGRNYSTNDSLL
T3 sequence (Q28998 whole entry): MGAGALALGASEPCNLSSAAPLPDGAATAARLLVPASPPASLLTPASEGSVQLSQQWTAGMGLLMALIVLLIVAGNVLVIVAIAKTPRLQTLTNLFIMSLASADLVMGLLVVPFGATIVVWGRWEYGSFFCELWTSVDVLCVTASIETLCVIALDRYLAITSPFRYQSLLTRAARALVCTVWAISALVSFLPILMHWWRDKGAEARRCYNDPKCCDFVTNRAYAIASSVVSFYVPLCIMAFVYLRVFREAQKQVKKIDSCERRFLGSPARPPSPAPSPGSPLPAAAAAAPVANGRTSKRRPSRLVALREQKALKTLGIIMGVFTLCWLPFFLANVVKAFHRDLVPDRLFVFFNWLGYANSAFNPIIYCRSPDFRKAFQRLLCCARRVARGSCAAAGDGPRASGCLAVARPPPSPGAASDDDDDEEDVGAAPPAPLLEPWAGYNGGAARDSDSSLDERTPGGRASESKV

Question: Which “relative β2-adrenoceptor blocking potency” value ([1]; in words) does the source give for CCOC(=O)c1ccc(OCC(O)CNC(C)(C)C)c(OC)c1 (centres unmarked) [Vasomolol] here?
Answer: Its value is “less potent than propranolol”.

Question: And the “pA2 value, β2, trachea” value ([1]; mean ± SEM, six to eight experiments, 60 min)?
Answer: Its value is 5.81 ± 0.11.

Question: And the “antagonism of (-) isoproterenol-induced relaxation” value ([1]; printed 5×10^8 -10^6 M, tracheal strips)?
Answer: The value was “competitively antagonized”.

Question: What about the “Schild slope, trachea” value ([1]; regression of Schild plot) of the same compound?
Answer: The value was 0.81 ± 0.06.

Question: And the “intrinsic sympathomimetic activity: effect on heart rate and contractility” value [2]?
Answer: Its value is “did not induce an increase in the heart rate or contractility”.

Question: And the “intrinsic sympathomimetic activity: effect on heart rate and contractility” value ([2]; listed as vasomolol)?
Answer: The value was “Lack of intrinsic sympathomimetic activity”.

Question: And the “concentration causing negative inotropic and chronotropic effects” value ([2]; right atria rate and left atria tension)?
Answer: The value was ≥ 10^-5 M.

Question: And the “antagonism of isoproterenol-induced positive chronotropic actions” value ([3]; 5×10^-8 -10^-6 M, right atrial strips)?
Answer: Its value is “caused a dose-dependent parallel shift to the right of the isoproterenol concentration-response curves”.

Question: What about the “pA2 value, β1, right atrium” value ([3]; mean ± SEM, six to eight experiments, 30 min) of the same compound?
Answer: Its value is 7.41 ± 0.05.

Question: What about the “Schild slope, right atrium” value ([3]; regression of Schild plot) of the same compound?
Answer: Its value is 0.90 ± 0.04.

Question: What about the BP change [4, 6] of the same compound?
Answer: Its BP change is -4.5 ± 1.4 mm Hg.

Question: What about the HR change [4, 6] of the same compound?
Answer: Its HR change is -20.0 ± 2.3 bpm.

Question: What about the bradycardia duration [4, 6] of the same compound?
Answer: Its bradycardia duration is 3.5 ± 0.7 min.

Question: And the BP change [4, 7]?
Answer: Its BP change is -6.5 ± 1.9 mm Hg.

Question: What about the HR change [4, 7] of the same compound?
Answer: The HR change was -34.5 ± 2.8 bpm.

Question: What about the bradycardia duration [4, 7] of the same compound?
Answer: Its bradycardia duration is 7.2 ± 0.8 min.

Question: And the BP change [4, 8]?
Answer: Its BP change is -10.8 ± 1.2 mm Hg.

Question: What about the HR change [4, 8] of the same compound?
Answer: The HR change was -50.0 ± 3.4 bpm.

Question: And the bradycardia duration [4, 8]?
Answer: Its bradycardia duration is 8.0 ± 1.2 min.

Question: What about the bradycardia duration ([4]; i.v. injection) of the same compound?
Answer: The bradycardia duration was “less than 10 min”.

Question: And the “blood pressure and heart rate effect” value ([4]; i.v. injection 0.5, 1.0, 3.0 mg/kg, in words)?
Answer: Its value is “produced a hypotensive action and a decrease in heart rate”.

Question: And the “β1/β2 selectivity in words” value (β1/β2-adrenoceptors)?
Answer: The value was “selective for β1-adrenoceptors”.

Question: And the β1/β2-selectivity ratio (β1/β2-adrenoceptors; antilogarithm of difference between mean pA2 of right atrium and trachea)?
Answer: The β1/β2-selectivity ratio was 39.8.

Question: And the “potency on right atria versus trachea” value (β1/β2-adrenoceptors; from mean pA2 values)?
Answer: The value was 39.8 times.

Question: What about the “order of potency inhibiting [3H]-DHA binding” value ([5]; in words) of the same compound?
Answer: The value was “(-) propranolol>>vasomolol=esmolol”.

Question: What about the IC50 ([5]; mean±S.E.M.) of the same compound?
Answer: The IC50 was 4.7 ± 1.5 µM.
